Where two headings read alike, the source gives them in different places.
Experiments:
[1] = tested on: Pa16c cells; test: Pa16c Cell Proliferation Assay; type: cell-based; conditions: Table 2, read-out: Inhibition of cell proliferation in Pa16c (IC50 class)
Procedure, shortened: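 Proliferation read-out: resazurin fluorescence (540 nm excitation, 600 nm emission) after an extra 18 to 24 h. Before that, compound dilution series (triplicate) stayed on 750 Pa16c cells/well in complete DMEM/10% FBS for 67 to 72 h at 37° C. IC50 values derived from the curves.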

[2] = target: T1, B-Raf kinase (SEQ ID NO: 1) (Homo sapiens, UniProt P15056); test: Biochemical Assay for B-Raf (coupled pyruvate kinase/lactate dehydrogenase assay)
T1 construct: GST (N); purchased Sigma
T1 sequence (P15056 416-766): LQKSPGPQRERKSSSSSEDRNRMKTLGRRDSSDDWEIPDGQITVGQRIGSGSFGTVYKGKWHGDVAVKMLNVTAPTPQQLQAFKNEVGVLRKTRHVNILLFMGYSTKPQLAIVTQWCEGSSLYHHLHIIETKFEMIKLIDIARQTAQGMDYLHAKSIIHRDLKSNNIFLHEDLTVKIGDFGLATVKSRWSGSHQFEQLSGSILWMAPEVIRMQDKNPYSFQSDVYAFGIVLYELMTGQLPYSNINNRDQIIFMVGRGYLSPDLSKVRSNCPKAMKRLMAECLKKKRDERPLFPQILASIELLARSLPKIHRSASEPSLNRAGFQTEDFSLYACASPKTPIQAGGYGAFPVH

[3] = tested on: MiaPaca-2 cells; test: MiaPaca-2 Cell Proliferation Assay; type: cell-based
Procedure, shortened: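 Viability was read as resazurin fluorescence (540 nm excitation, 600 nm emission) after 5–6 h with dye. Compounds were tested as serial dilutions in triplicate, with IC50 derived from the dose–response.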

[4] = target: T2, C-Raf kinase (SEQ ID NO: 2) (Homo sapiens, UniProt P04049, Y340D/Y341D); test: Biochemical Assay for C-Raf (coupled pyruvate kinase/lactate dehydrogenase assay)
T2 construct: C-Raf residues 306-end; Y340D, Y341D with; GST (N); purchased Sigma
T2 sequence (P04049 307-648 Y340D/Y341D): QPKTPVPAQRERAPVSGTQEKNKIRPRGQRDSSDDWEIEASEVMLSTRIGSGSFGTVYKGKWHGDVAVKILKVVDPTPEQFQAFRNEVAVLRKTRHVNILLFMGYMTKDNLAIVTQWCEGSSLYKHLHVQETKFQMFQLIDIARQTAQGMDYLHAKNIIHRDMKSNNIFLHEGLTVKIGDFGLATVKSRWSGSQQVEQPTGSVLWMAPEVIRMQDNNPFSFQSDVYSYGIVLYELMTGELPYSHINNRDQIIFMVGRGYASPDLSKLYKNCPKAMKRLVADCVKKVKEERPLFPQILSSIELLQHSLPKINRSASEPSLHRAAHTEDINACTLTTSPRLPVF

[5] = tested on: HPAF-II cells; test: HPAF-II Cell Proliferation Assay; type: cell-based
Procedure, shortened: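 Viability read-out was resazurin fluorescence (540 nm excitation, 600 nm emission), developed 18–24 h after a 115–120 h compound exposure of 750 HPAF-II cells per well in MEM/10% FBS at 37 °C. Compound was tested as a serial dilution in triplicate, and IC50 values were calculated.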

[6] = target: T3, Porcine Brain Tubulin (Sus scrofa, UniProt P02550+P02554); test: Biochemical Tubulin Polymerization Assay
T3 construct: Porcine Brain Tubulin (T240); purchased Cytoskeleton, Inc T240; BK011P; host or cells: porcine brain (tissue-purified)
T3 sequence (P02550 whole entry): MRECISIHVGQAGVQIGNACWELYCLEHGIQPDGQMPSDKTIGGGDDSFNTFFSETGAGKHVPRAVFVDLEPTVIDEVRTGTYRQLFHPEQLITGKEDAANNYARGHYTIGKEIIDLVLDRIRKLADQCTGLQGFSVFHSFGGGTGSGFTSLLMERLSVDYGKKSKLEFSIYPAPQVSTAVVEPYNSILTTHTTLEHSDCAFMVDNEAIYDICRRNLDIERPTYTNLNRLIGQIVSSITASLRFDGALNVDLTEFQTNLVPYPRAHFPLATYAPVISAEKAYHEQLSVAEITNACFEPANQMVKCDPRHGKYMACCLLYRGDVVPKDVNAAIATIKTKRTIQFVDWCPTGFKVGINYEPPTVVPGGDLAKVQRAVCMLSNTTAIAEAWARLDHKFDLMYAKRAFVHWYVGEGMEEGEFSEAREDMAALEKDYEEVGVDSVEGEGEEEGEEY
T3 sequence (P02554 whole entry): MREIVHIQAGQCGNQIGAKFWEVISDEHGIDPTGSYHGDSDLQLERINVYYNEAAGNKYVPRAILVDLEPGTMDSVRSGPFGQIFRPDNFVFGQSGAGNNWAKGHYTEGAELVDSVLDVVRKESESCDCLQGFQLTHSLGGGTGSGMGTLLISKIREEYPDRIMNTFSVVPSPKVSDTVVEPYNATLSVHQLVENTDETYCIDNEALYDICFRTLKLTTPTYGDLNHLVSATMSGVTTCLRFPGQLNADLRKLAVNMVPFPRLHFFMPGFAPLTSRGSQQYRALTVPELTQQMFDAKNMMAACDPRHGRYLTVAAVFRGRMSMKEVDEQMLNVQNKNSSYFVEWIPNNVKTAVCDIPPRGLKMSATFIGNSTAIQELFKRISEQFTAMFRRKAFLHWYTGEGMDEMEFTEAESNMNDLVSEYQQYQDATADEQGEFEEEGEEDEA

[7] = tested on: HCT-116 cells; test: HCT-116 Cell Proliferation Assay; type: cell-based
Procedure, shortened: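 IC50 values come from resazurin fluorescence (540 nm excitation, 600 nm emission) added for 4 to 5 h after compound treatment. Treatment: serially diluted compound in triplicate on 375 HCT-116 cells per well in complete McCoy's 5A/10% FBS, 67 to 72 hours, 37 °C, 5% CO2.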

[8] = 1 mM ATP, read-out: BRAF (inhibition of biochemical activity, IC50)
[9] = Table 3, read-out: BRAF (IC50 class)
[10] = Homo sapiens, MIA PaCa-2, MiaPaca-2 cells, Table 2, read-out: Inhibition of cell proliferation in MiaPaca-2 (IC50 class)
[11] = Homo sapiens, MIA PaCa-2, Table 3, read-out: MiaPaca-2 (IC50 class)
[12] = 1 mM ATP, read-out: CRAF (inhibition of biochemical activity, IC50)
[13] = Table 3, read-out: CRAF (IC50 class)
[14] = Homo sapiens, HPAF-II, HPAF-II cells, Table 2, read-out: Inhibition of cell proliferation in HPAF-II (IC50 class)
[15] = Homo sapiens, HPAF-II, Table 3, read-out: HPAF-II (IC50 class)
[16] = Table 3, Tubulin Biochemical assay, read-out: Tubulin Biochem (IC50 class)
[17] = Homo sapiens, HCT-116, HCT-116 cells, Table 2, read-out: Inhibition of cell proliferation in HCT-116 (IC50 class)
[18] = Homo sapiens, HCT-116, Table 3, read-out: HCT-116 (IC50 class)
[19] = Table 4, representative compounds from PCT/US2022/081242, read-out: BRAF IC50
[20] = Table 4, representative compounds from PCT/US2022/081242, read-out: CRAF IC50
[21] = Homo sapiens, HPAF-II, Table 4, HPAF-II mutant KRAS pancreatic cancer cell line, read-out: HPAF-II IC50
[22] = Table 4, representative compounds from PCT/US2022/081242, read-out: Tubulin Biochem IC50
[23] = Homo sapiens, HCT-116, Table 4, HCT-116 mutant KRAS colorectal cancer cell line, read-out: HCT-116 IC50
[24] = Homo sapiens, MIA PaCa-2, Table 4, MiaPaca-2 mutant KRAS pancreatic cancer cell line, read-out: MiaPaca-2 IC50
[25] = MiaPaca-2 cells, Table 2, read-out: Inhibition of cell proliferation in MiaPaca-2 (IC50 class)
[26] = HPAF-II cells, Table 2, read-out: Inhibition of cell proliferation in HPAF-II (IC50 class)
[27] = HCT-116 cells, Table 2, read-out: Inhibition of cell proliferation in HCT-116 (IC50 class)

SMILES	IC50 [2, 8] [nM]	IC50 [3, 10] [nM]	IC50 [4, 12] [nM]	IC50 [7, 17] [nM]	IC50 [1] [nM]	IC50 [5, 14] [nM]	other results
Cc1ccc(NC(=O)c2cc(C(F)(F)F)cnn2)cc1-c1cc(N[C@H](C)CO)nc(-c2ccnc(NC(=O)C3CC3)c2)c1 [Example 45]	< 100	100 to 500	< 100	< 100	100 to 500	< 100	IC50 [2, 9]: < 100 nM; IC50 [3, 11]: 100 to 500 nM; IC50 [4, 13]: < 100 nM; IC50 [5, 15]: < 100 nM; IC50 [6, 16]: 3000 to 20000 nM; IC50 [7, 18]: < 100 nM
Cc1ccc(NC(=O)c2ccnc(C(C)C)c2)cc1-c1ccnc(-c2ccnc(NC(=O)C3CC3)c2)c1 [reference compound]	–	–	–	–	–	–	IC50 [2, 19]: < 100 nM; IC50 [4, 20]: < 100 nM; IC50 [5, 21]: 100 to 500 nM; IC50 [6, 22]: > 100000 nM; IC50 [7, 23]: 1000 to 10000 nM
Cc1ccc(NC(=O)c2ccnc(C(C)(C)F)c2)cc1-c1ccnc(-c2ccnc(NC(=O)C3CC3)c2)c1 [reference compound]	–	–	–	–	–	–	IC50 [2, 19]: < 100 nM; IC50 [3, 24]: 1000 to 10000 nM; IC50 [4, 20]: < 100 nM; IC50 [5, 21]: 500 to 1000 nM; IC50 [6, 22]: > 100000 nM; IC50 [7, 23]: 100 to 500 nM
Cc1ccc(NC(=O)c2cc(C(C)(C)F)cnn2)cc1-c1ccnc(-c2ccnc(NC(=O)C3CC3)c2)c1 [Example 59]	< 100	100 to 500	< 100	< 100	100 to 500	100 to 500	IC50 [2, 9]: < 100 nM; IC50 [3, 11]: 100 to 500 nM; IC50 [4, 13]: < 100 nM; IC50 [5, 15]: 100 to 500 nM; IC50 [6, 16]: < 3000 nM; IC50 [7, 18]: < 100 nM
Cc1cnc(NC(=O)c2cc(C(F)(F)F)cnn2)cc1-c1ccnc(-c2ccnc(NC(=O)C3CC3)c2)c1 [Example 36]	< 100	1000 to 10000	< 100	100 to 500	1000 to 10000	1000 to 10000	–
Cc1cc(-c2cc(NC(=O)c3cc(C(F)(F)F)cnn3)cnc2C)cc(-c2ccnc(NC(=O)C3CC3)c2)n1 [Example 35]	< 100	1000 to 10000	< 100	1000 to 10000	1000 to 10000	1000 to 10000	–
CC(=O)Nc1cc(-c2cc(-c3cc(NC(=O)c4cc(C(F)(F)F)cnn4)ccc3C)ccn2)ccn1 [Example 93]	< 100	–	< 100	–	1000 to 10000	–	IC50 [3, 25]: 100 to 500 nM; IC50 [5, 26]: < 100 nM; IC50 [7, 27]: < 100 nM
Cc1ccc(NC(=O)c2cc(C(C)C)cnn2)cc1-c1ccnc(-c2ccnc(NC(=O)C3CC3)c2)c1 [Example 38]	< 100	100 to 500	< 100	100 to 500	500 to 1000	100 to 500	–
Cc1ccc(NC(=O)c2cc(C(F)(F)F)cnn2)cc1-c1cccc(-c2cc(NC(=O)C3CC3)ncn2)c1 [Example 11]	< 100	500 to 1000	< 100	100 to 500	1000 to 10000	500 to 1000	–
Cc1ccc(NC(=O)c2ccc(C(F)F)nc2)cc1-c1ccnc(-c2ccnc(NC(=O)C3CC3)c2)n1 [Example 70]	< 100	100 to 500	< 100	100 to 500	1000 to 10000	100 to 500	–
Cc1ccc(NC(=O)c2ccc(C(F)(F)F)nc2)cc1-c1ccnc(-c2ccnc(NC(=O)C3CC3)c2)c1 [Example 79]	< 100	–	< 100	–	100 to 500	–	IC50 [3, 25]: 100 to 500 nM; IC50 [5, 26]: 100 to 500 nM; IC50 [7, 27]: 100 to 500 nM
Cc1ccc(NC(=O)c2cc(C(C)(F)F)cnn2)cc1-c1cc(NCCO)nc(-c2ccnc(NC(=O)C3CC3)c2)c1 [Example 101]	< 100	100 to 500	< 100	< 100	< 100	100 to 500	–
CCNc1cc(-c2cc(-c3cc(NC(=O)c4cc(C(F)(F)F)cnn4)ccc3C)ccn2)ccn1 [Example 95]	100 to 500	100 to 500	100 to 500	100 to 500	500 to 1000	100 to 500	–
Cc1ccc(NC(=O)c2ccnc(C3CC3)c2)cc1-c1ccnc(-c2ccnc(NC(=O)C3CC3)c2)c1 [reference compound]	–	–	–	–	–	–	IC50 [2, 19]: < 100 nM; IC50 [3, 24]: 1000 to 10000 nM; IC50 [4, 20]: < 100 nM; IC50 [5, 21]: 1000 to 10000 nM; IC50 [6, 22]: > 100000 nM; IC50 [7, 23]: 500 to 1000 nM
Cc1ccc(NC(=O)c2ccc(C(F)F)nn2)cc1-c1ccnc(-c2ccnc(NC(=O)C3CC3)c2)c1 [Example 58]	500 to 1000	100 to 500	100 to 500	< 100	1000 to 10000	100 to 500	–
CCn1cc(-c2cc(-c3cc(NC(=O)c4cc(C(F)(F)F)cnn4)ccc3C)ccn2)cn1 [Example 115]	100 to 500	100 to 500	100 to 500	100 to 500	100 to 500	100 to 500	–
Cc1ccc(NC(=O)c2cc(C(F)(F)F)cnn2)cc1-c1ccnc(-c2ccnc(NCC(F)(F)F)c2)c1 [Example 53]	500 to 1000	100 to 500	500 to 1000	100 to 500	1000 to 10000	100 to 500	–
Cc1ccc(NC(=O)c2cncc(C(F)(F)F)n2)cc1-c1ccnc(-c2ccnc(NC(=O)C3CC3)c2)c1 [Example 84]	< 100	1000 to 10000	< 100	1000 to 10000	1000 to 10000	1000 to 10000	–

Now from value to compound, other results behind:

IC50 [2, 8] [nM]	IC50 [3, 10] [nM]	IC50 [4, 12] [nM]	IC50 [7, 17] [nM]	SMILES	IC50 [1] [nM]	IC50 [5, 14] [nM]	other results
1000 to 10000	< 100	1000 to 10000	< 100	Cc1ccc(NC(=O)c2cnc(C(F)(F)F)nc2)cc1-c1ccnc(-c2cn[nH]c2)c1 [Example 126]	100 to 500	100 to 500	–
< 100	< 100	< 100	100 to 500	Cc1ccc(NC(=O)c2cc(C(F)(F)F)cnn2)cc1-c1cc(N[C@H](C)CO)nc(-c2cn[nH]c2C)c1 [Example 120]	100 to 500	100 to 500	–
< 100	500 to 1000	< 100	500 to 1000	Cc1ccc(NC(=O)c2cc(C(F)(F)F)cnn2)cc1-c1cncc(-c2cc(NC(=O)C(F)(F)F)ncn2)c1 [Example 125]	500 to 1000	500 to 1000	–
100 to 500	100 to 500	< 100	100 to 500	Cc1ccc(NC(=O)c2cc(C(C)(F)F)cnn2)cc1-c1ccnc(-c2cnn(C)c2)c1 [Example 150]	500 to 1000	100 to 500	–
< 100	500 to 1000	< 100	100 to 500	Cc1ccc(NC(=O)c2cc(OC(F)F)cnn2)cc1-c1ccnc(-c2ccnc(NC(=O)C3CC3)c2)c1 [Example 134]	100 to 500	1000 to 10000	–
100 to 500	100 to 500	< 100	100 to 500	Cc1ccc(NC(=O)c2cnc(C(F)(F)F)nc2)cc1-c1cc(N[C@H](C)CO)nc(-c2cn[nH]c2)c1 [Example 133]	1000 to 10000	1000 to 10000	–
< 100	100 to 500	< 100	500 to 1000	Cc1ccc(NC(=O)c2cc(Br)cnn2)cc1-c1ccnc(-c2ccnc(NC(=O)C3CC3)c2)c1 [Example 130]	500 to 1000	1000 to 10000	–
< 100	100 to 500	< 100	500 to 1000	Cc1ccc(NC(=O)c2cc(C(F)(F)F)cnn2)cc1-c1cncc(-c2cc(NC=O)ncn2)c1 [Example 124]	500 to 1000	500 to 1000	–
